Activity calls are given as the source filed them. The calls are words filed in the database; no cut-off is given here.
What was measured:
RAW264.7 [1] = assay: Cytotoxicity against mouse RAW264.7 cells assessed as reduction in cell viability at 2.5 to 20 uM incubated for 24 hrs by CCK-8 assay; assay type: toxicity, cell-based; conditions: raw264.7, 24 h, dose 2.5-20 µM
RAW264.7 [2] = assay: Antiinflammatory activity in LPS-induced mouse RAW264.7 cells assessed as inhibition of IL-6 production pretreated for 1 hr followed by LPS stimulation and measured after 3 hrs by ELISA; assay type: functional, cell-based; conditions: dose 2.5-20 µM, time 4.0 hrs
RAW264.7 [3] = assay: Antiinflammatory activity in LPS-induced mouse RAW264.7 cells assessed as inhibition of TNFalpha production at 5 to 20 uM pretreated for 1 hr followed by LPS stimulation and measured after 3 hrs by ELISA; assay type: functional, cell-based; conditions: dose 5-20 µM, time 4.0 hrs
[4] = biological target: Transcription factor p65 (Mus musculus) (UniProt Q04207); assay: Inhibition of NFkappaB p65 phosphorylation at Ser536 residue in LPS-induced mouse RAW264.7 cells assessed as downregulation of p-NFkappaB p65 protein expression at 5 uM pretreated for 2 hrs followed by LPS stimulation and measured after 25 mins by Western blot analysis; assay type: cell-based; conditions: time 145.0 min
Chain of Transcription factor p65 (Mus musculus) (Q04207 whole entry): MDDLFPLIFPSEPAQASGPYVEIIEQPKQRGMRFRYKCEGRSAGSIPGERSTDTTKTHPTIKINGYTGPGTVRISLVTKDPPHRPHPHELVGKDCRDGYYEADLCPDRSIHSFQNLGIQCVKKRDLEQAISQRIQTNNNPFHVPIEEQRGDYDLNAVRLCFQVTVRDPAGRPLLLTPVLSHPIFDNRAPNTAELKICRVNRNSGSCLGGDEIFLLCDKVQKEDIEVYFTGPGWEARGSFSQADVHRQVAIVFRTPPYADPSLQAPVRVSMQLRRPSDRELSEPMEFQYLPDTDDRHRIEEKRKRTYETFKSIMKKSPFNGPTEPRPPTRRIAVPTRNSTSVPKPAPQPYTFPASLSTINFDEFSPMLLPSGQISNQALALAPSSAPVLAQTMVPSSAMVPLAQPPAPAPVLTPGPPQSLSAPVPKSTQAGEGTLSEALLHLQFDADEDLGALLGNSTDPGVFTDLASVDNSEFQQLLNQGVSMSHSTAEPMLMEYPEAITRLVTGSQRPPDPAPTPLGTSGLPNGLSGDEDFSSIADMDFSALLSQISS

[5] = biological target: T1, NF-kappa-B inhibitor alpha (Mus musculus) (UniProt Q9Z1E3); assay: Inhibition of IkappaBalpha phosphorylation at Ser32 residue in LPS-induced mouse RAW264.7 cells at 5 uM pretreated for 2 hrs followed by LPS stimulation and measured after 25 mins by Western blot analysis; assay type: cell-based; conditions: time 145.0 min
T1 sequence (whole entry): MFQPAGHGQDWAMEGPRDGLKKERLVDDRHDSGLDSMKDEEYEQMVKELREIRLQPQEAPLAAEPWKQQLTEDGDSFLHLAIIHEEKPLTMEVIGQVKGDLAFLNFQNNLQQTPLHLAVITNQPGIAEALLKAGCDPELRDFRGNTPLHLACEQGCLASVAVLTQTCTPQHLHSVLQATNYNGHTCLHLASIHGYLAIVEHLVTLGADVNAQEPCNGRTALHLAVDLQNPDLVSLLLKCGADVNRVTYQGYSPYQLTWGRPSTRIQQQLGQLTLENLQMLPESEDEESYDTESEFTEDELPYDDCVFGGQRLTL

RAW264.7 [6] = assay: Effect on COX-2 protein expression in LPS-induced mouse RAW264.7 cells at 5 uM pretreated for 2 hrs followed by LPS stimulation and measured after 25 mins by Western blot analysis; assay type: functional, cell-based; conditions: time 145.0 min
[7] = biological target: Mitogen-activated protein kinase 1 and 3 (ERK2 and ERK1) (Mus musculus) (UniProt P63085+Q63844); assay: Inhibition of LPS-induced ERK1/2 phosphorylation in mouse RAW264.7 cells assessed as reduction in p-ERK1/2 protein expression at 2.5 to 5 uM pretreated for 2 hrs followed by LPS stimulation and measured after 25 mins by Western blot analysis; assay type: cell-based; conditions: dose 2.5-5 µM, time 145.0 min
Chain of Mitogen-activated protein kinase 1 and 3 (ERK2 and ERK1) (Mus musculus) (P63085 whole entry, looked up): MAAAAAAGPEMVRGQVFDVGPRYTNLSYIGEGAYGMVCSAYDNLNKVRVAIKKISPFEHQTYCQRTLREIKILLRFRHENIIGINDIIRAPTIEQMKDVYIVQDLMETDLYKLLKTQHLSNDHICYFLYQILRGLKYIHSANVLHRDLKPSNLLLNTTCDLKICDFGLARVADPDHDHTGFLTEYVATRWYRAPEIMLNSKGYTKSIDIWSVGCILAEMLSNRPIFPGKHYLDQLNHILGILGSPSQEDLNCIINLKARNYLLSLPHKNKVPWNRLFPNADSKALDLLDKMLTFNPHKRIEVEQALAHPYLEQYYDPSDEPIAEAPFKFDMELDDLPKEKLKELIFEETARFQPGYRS
Chain of Mitogen-activated protein kinase 1 and 3 (ERK2 and ERK1) (Mus musculus) (Q63844 whole entry, looked up): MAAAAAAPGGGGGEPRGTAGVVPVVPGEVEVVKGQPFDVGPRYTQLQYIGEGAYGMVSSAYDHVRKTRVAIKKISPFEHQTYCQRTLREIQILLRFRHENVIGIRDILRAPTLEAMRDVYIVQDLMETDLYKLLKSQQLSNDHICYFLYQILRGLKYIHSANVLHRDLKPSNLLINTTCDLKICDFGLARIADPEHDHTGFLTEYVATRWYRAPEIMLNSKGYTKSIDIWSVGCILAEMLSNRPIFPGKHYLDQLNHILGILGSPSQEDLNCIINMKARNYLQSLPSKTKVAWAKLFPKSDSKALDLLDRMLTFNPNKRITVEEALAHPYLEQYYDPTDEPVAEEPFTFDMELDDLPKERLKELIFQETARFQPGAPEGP

RAW264.7 [8] = assay: Inhibition of LPS-induced p38 phosphorylation in mouse RAW264.7 cells assessed as reduction in p-p38 protein expression at 2.5 to 5 uM pretreated for 2 hrs followed by LPS stimulation and measured after 25 mins by Western blot analysis; assay type: cell-based; conditions: dose 2.5-5 µM, time 145.0 min
[9] = biological target: c-Jun N-terminal kinase (Mus musculus) (UniProt Q91Y86+Q9WTU6+Q61831); assay: Inhibition of LPS-induced JNK phosphorylation in mouse RAW264.7 cells assessed as reduction in p-JNK protein expression at 2.5 to 5 uM pretreated for 2 hrs followed by LPS stimulation and measured after 25 mins by Western blot analysis; assay type: cell-based; conditions: dose 2.5-5 µM, time 145.0 min
Chain of c-Jun N-terminal kinase (Mus musculus) (Q61831 whole entry, looked up): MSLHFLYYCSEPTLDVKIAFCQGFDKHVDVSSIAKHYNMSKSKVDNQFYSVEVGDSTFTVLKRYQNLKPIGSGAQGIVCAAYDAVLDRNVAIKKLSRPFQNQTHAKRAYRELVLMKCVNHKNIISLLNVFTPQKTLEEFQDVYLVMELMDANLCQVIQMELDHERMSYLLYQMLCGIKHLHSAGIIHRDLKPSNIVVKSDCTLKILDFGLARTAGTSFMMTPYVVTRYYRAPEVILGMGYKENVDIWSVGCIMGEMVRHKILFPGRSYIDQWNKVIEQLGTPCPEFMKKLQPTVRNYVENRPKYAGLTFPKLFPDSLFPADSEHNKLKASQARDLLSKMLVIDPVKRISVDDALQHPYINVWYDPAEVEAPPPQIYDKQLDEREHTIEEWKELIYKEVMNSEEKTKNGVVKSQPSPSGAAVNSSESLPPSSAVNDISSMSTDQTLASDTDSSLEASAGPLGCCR
Chain of c-Jun N-terminal kinase (Mus musculus) (Q91Y86 whole entry, looked up): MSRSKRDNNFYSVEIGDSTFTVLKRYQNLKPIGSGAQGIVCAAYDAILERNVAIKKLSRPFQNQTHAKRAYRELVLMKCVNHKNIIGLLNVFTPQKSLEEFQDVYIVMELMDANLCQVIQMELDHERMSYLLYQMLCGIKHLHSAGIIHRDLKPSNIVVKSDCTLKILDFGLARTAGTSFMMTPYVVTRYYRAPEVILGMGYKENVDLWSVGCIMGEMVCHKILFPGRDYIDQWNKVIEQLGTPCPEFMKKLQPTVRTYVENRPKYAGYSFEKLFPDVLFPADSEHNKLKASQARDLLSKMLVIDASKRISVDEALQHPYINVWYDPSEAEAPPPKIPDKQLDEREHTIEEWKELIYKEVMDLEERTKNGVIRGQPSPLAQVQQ
Chain of c-Jun N-terminal kinase (Mus musculus) (Q9WTU6 whole entry, looked up): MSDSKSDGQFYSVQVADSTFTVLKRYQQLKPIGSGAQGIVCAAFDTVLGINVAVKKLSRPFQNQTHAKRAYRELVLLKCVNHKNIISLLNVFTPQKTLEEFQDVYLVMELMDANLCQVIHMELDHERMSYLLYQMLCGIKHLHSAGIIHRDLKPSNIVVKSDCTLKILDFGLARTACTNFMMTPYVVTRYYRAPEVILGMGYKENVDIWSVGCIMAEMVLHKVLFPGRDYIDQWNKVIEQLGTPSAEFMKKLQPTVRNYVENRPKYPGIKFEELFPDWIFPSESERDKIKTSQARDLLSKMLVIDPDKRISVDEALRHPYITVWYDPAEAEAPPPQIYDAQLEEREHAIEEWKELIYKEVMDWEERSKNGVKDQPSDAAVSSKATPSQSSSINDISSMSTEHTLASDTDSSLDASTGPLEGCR

| inhibition [4] | inhibition [5] | inhibition [7] | inhibition [9] | SMILES | Activity (RAW264.7 [1]) | Activity (RAW264.7 [2]) | Activity (RAW264.7 [3]) | Activity (RAW264.7 [6]) | inhibition (RAW264.7 [8]) |
| --- | --- | --- | --- | --- | --- | --- | --- | --- | --- |
|  |  |  |  | C=C1[C@H](O)C[C@@H]2Oc3ccc(O)cc3C[C@]3(C)[C@@H](C)CC[C@@]1(C)[C@@H]23 | Non-Toxic | Dose-Dependent Effect |  |  |  |
| Active | inactive | Active | Active | C[C@@H]1CC[C@@]2(C)OC(=O)[C@H]3Oc4ccc(O)cc4C[C@]1(C)[C@@H]32 | Non-Toxic | Dose-Dependent Effect | Active | inactive | Active |
|  |  |  |  | CCOC1=CC(=O)C2=C(C1=O)[C@@H]1C[C@]3(C)C(C)=CCCC3=C(C)[C@]1(C)C2 | Non-Toxic |  | Active |  |  |
|  |  |  |  | C[C@H]1CC[C@]2(C)[C@@H](C)OC(=O)C[C@]23c2c(O)ccc(O)c2C[C@]13C | Non-Toxic |  |  |  |  |
|  |  |  |  | CC1=CC(=O)[C@@H]2Oc3ccc(O)cc3C[C@]3(C)[C@@H](C)CC[C@@]1(C)[C@@H]23 | Non-Toxic | Dose-Dependent Effect | Active |  |  |
|  |  |  |  | C[C@H]1CC[C@@]2(C)[C@]34CC(=O)C[C@]2(C)Oc2ccc(O)c(c23)C[C@]14C | Non-Toxic | Dose-Dependent Effect | Active |  |  |

— ChEMBL document CHEMBL5357059, “Arenarialins A-F, Anti-inflammatory Meroterpenoids with Rearranged Skeletons from the Marine Sponge Dysidea arenaria” (J Nat Prod, 2024)
